Tests used:
[1] = biological target: human BRD4 first bromodomain (BDI_K57-E168) (Homo sapiens (Human), UniProt O60885); assay: TR-FRET bromodomain binding assay, BRD4 first bromodomain
[2] = Rat liver microsome stability assay; format: in vitro ADME; details: rat liver microsomes (male Sprague-Dawley), 0.5 μM test compound, 0.25 mg/mL microsomal protein, pH 7.4, 37° C.; read-out: Stability in rat liver microsomes (t1/2 in minutes)
[3] = biological target: human BRD4 second bromodomain (BDII_E352-M457) (Homo sapiens (Human), UniProt O60885); assay: TR-FRET bromodomain binding assay, BRD4 second bromodomain
[4] = tested on: breast cancer cell line MX-1; assay: MX-1 cell line proliferation assay; format: cell-based, human; details: Homo sapiens, MX1, 72 h; MX-1 cells, 3-day proliferation, Cell Titer Glo; read-out: Cellular proliferation: EC50
[5] = Human liver microsome stability assay; format: in vitro ADME; details: both sexes, human, microsomes, pH 7.4
[6] = Mouse liver microsome stability assay; format: in vitro ADME; details: male, CD1, mouse, microsomes, pH 7.4

| Ki [1] | half-life at 0.5 μM [2] | Ki [3] | EC50 [4] | half-life at 0.5 μM [5] | half-life at 0.5 μM [6] | Structure (SMILES) |
| --- | --- | --- | --- | --- | --- | --- |
| 10.5 nM | > 120 min | 154 nM | 265 nM | 70 min | > 120 min | Cn1cc(-c2cc(S(C)(=O)=O)ccc2Oc2ccc(F)cc2F)c2cc(C(=O)N3CCOCC3)[nH]c2c1=O [Example 255, 4-[2-(2,4-difluorophenoxy)-5-(methylsulfonyl)phenyl]-6-methyl-2-(morpholin-4-ylcarbonyl)-1,6-dihydro-7H-pyrrolo[2,3-c]pyridin-7-one] |
| 6.1 nM | 58 min | 84 nM | 405 nM | 58 min | 71 min | CN1CCN(C(=O)c2cc3c(-c4cc(S(C)(=O)=O)ccc4Oc4ccc(F)cc4F)cn(C)c(=O)c3[nH]2)CC1 [Example 256, 4-[2-(2,4-difluorophenoxy)-5-(methylsulfonyl)phenyl]-6-methyl-2-[(4-methylpiperazin-1-yl)carbonyl]-1,6-dihydro-7H-pyrrolo[2,3-c]pyridin-7-one] |
| 58.8 nM | 56 min | 3 nM | 360 nM | 18 min | 20.3 min | Cn1cc(-c2cc(S(C)(=O)=O)ccc2Oc2ccc(F)cc2F)c2cc(C(=O)Nc3nccs3)[nH]c2c1=O [Example 257, 4-[2-(2,4-difluorophenoxy)-5-(methylsulfonyl)phenyl]-6-methyl-7-oxo-N-(1,3-thiazol-2-yl)-6,7-dihydro-1H-pyrrolo[2,3-c]pyridine-2-carboxamide] |
| 5.9 nM | 91 min | 12.4 nM | 76.5 nM | 42 min | 69.8 min | CCOC(=O)N1CCC(Oc2ccc(S(C)(=O)=O)cc2-c2cn(C)c(=O)c3[nH]ccc23)CC1 [Example 258, ethyl 4-[2-(6-methyl-7-oxo-6,7-dihydro-1H-pyrrolo[2,3-c]pyridin-4-yl)-4-(methylsulfonyl)phenoxy]piperidine-1-carboxylate] |
| 1.5 nM | 5 min | 1.6 nM | 7.2 nM | 25 min | 16 min | CC(C)S(=O)(=O)c1ccc(NCC2CC2)c(-c2cn(C)c(=O)c3[nH]ccc23)c1 [Example 261, 4-{2-[(cyclopropylmethyl)amino]-5-(propan-2-ylsulfonyl)phenyl}-6-methyl-1,6-dihydro-7H-pyrrolo[2,3-c]pyridin-7-one] |
| 12.4 nM | 83 min | 56.9 nM | 329 nM | 79 min | 58 min | CN(C)C(=O)c1cc2c(-c3cc(S(C)(=O)=O)ccc3Oc3ccc(F)cc3F)cn(C)c(=O)c2[nH]1 [Example 269, 4-[2-(2,4-difluorophenoxy)-5-(methylsulfonyl)phenyl]-N,N,6-trimethyl-7-oxo-6,7-dihydro-1 H-pyrrolo[2,3-c]pyridine-2-carboxamide] |
| 2.9 nM | 12 min | 1.9 nM | 21.3 nM | 23 min | 11 min | CC(C)S(=O)(=O)c1ccc(Oc2ccc(F)cc2F)c(-c2cn(C)c(=O)c3[nH]ccc23)c1 [Example 271, 4-[2-(2,4-difluorophenoxy)-5-(propan-2-ylsulfonyl)phenyl]-6-methyl-1,6-dihydro-7H-pyrrolo[2,3-c]pyridin-7-one] |
| 19.2 nM | 84 min | 92 nM | 292 nM | 17 min | 36 min | Cn1cc(-c2cc(S(C)(=O)=O)ccc2Oc2ccc(F)cc2F)c2cc(CN3CCOCC3)[nH]c2c1=O [Example 280, 4-[2-(2,4-difluorophenoxy)-5-(methylsulfonyl)phenyl]-6-methyl-2-(morpholin-4-ylmethyl)-1,6-dihydro-7H-pyrrolo[2,3-c]pyridin-7-one] |
| 1.8 nM | 119 min | 108 nM | 191 nM | 25 min | 116 min | CN1CCN(Cc2cc3c(-c4cc(S(C)(=O)=O)ccc4Oc4ccc(F)cc4F)cn(C)c(=O)c3[nH]2)CC1 [Example 281, 4-[2-(2,4-difluorophenoxy)-5-(methylsulfonyl)phenyl]-6-methyl-2-[(4-methylpiperazin-1-yl)methyl]-1,6-dihydro-7H-pyrrolo[2,3-c]pyridin-7-one] |
| 17.3 nM | 21 min | 72.3 nM | 204 nM | 9 min | 7 min | Cn1cc(-c2cc(S(C)(=O)=O)ccc2Oc2ccc(F)cc2F)c2cc(CNc3ccccc3)[nH]c2c1=O [Example 282, 4-[2-(2,4-difluorophenoxy)-5-(methylsulfonyl)phenyl]-6-methyl-2-[(phenylamino)methyl]-1,6-dihydro-7H-pyrrolo[2,3-c]pyridin-7-one] |
| 18.9 nM | 22 min | 34.6 nM | 138 nM | 7 min | 12 min | Cn1cc(-c2cc(S(C)(=O)=O)ccc2Oc2ccc(F)cc2F)c2cc(CNc3nccs3)[nH]c2c1=O [Example 283, 4-[2-(2,4-difluorophenoxy)-5-(methylsulfonyl)phenyl]-6-methyl-2-[(1,3-thiazol-2-ylamino)methyl]-1,6-dihydro-7H-pyrrolo[2,3-c]pyridin-7-one] |
| 18.3 nM | 108 min | 130 nM | 131 nM | 12 min | > 120 min | Cn1cc(-c2cc(S(C)(=O)=O)ccc2Oc2ccc(F)cc2F)c2cc(CNC3CCOC3)[nH]c2c1=O (stereo not drawn) [Example 284, 4-[2-(2,4-difluorophenoxy)-5-(methylsulfonyl)phenyl]-6-methyl-2-[(tetrahydrofuran-3-ylamino)methyl]-1,6-dihydro-7H-pyrrolo[2,3-c]pyridin-7-one] |
| 10.8 nM | 10 min | 7.5 nM | 111 nM | 19 min | 12 min | Cn1cc(-c2cc(S(=O)(=O)c3ccccc3)ccc2OCC2CC2)c2cc[nH]c2c1=O [Example 285, 4-[2-(cyclopropylmethoxy)-5-(phenylsulfonyl)phenyl]-6-methyl-1,6-dihydro-7H-pyrrolo[2,3-c]pyridin-7-one] |
| 53.2 nM | 22 min | 55.8 nM | 366 nM | 8 min | 12 min | Cn1cc(-c2cc(S(C)(=O)=O)ccc2Oc2ccc(F)cc2F)c2cc(COc3ccccc3)[nH]c2c1=O [Example 292, 4-[2-(2,4-difluorophenoxy)-5-(methylsulfonyl)phenyl]-6-methyl-2-(phenoxymethyl)-1,6-dihydro-7H-pyrrolo[2,3-c]pyridin-7-one] |
| 180 nM | 9 min | 19.3 nM | 381 nM | 4 min | 3 min | Cn1cc(-c2cc(S(=O)(=O)N3CCOCC3)ccc2Oc2ccc(F)cc2F)c2cc[nH]c2c1=O [Example 293, 4-[2-(2,4-difluorophenoxy)-5-(morpholin-4-ylsulfonyl)phenyl]-6-methyl-1,6-dihydro-7H-pyrrolo[2,3-c]pyridin-7-one] |
| 27.9 nM | 15 min | 30.7 nM | 223 nM | 7 min | 3 min | Cn1cc(-c2cc(NS(=O)(=O)CCN3CCOCC3)ccc2Oc2ccc(F)cc2F)c2cc[nH]c2c1=O [Example 295, N-[4-(2,4-difluorophenoxy)-3-(6-methyl-7-oxo-6,7-dihydro-1H-pyrrolo[2,3-c]pyridin-4-yl)phenyl]-2-(morpholin-4-yl)ethanesulfonamide] |
| 705 nM | 13 min | 101 nM | 535 nM | 7 min | 6 min | CCS(=O)(=O)N(CCN(C)C)c1ccc(Oc2ccc(F)cc2F)c(-c2cn(C)c(=O)c3[nH]ccc23)c1 [Example 296, N-[4-(2,4-difluorophenoxy)-3-(6-methyl-7-oxo-6,7-dihydro-1H-pyrrolo[2,3-c]pyridin-4-yl)phenyl]-N-[2-(dimethylamino)ethyl]ethanesulfonamide] |
| 2.9 nM | 47 min | 3.1 nM | 6.1 nM | 9 min | 3 min | CCS(=O)(=O)C(C)(C)c1ccc(Oc2ccc(F)cc2F)c(-c2cn(C)c(=O)c3[nH]ccc23)c1 [Example 298, 4-{2-(2,4-difluorophenoxy)-5-[2-(ethylsulfonyl)propan-2-yl]phenyl}-6-methyl-1,6-dihydro-7H-pyrrolo[2,3-c]pyridin-7-one] |
| 389 nM | 21 min | 190 nM | 176 nM | 30 min | 17 min | CN(C)CCS(=O)(=O)Nc1ccc(Oc2ccc(F)cc2F)c(-c2cn(C)c(=O)c3[nH]ccc23)c1 [Example 300, N-[4-(2,4-difluorophenoxy)-3-(6-methyl-7-oxo-6,7-dihydro-1H-pyrrolo[2,3-c]pyridin-4-yl)phenyl]-2-(dimethylamino)ethanesulfonamide] |
| 17.9 nM | 82 min | 15.5 nM | 42.1 nM | 20 min | 13 min | CCOC(=O)N1CCC(Oc2ccc(S(=O)(=O)CC)cc2-c2cn(C)c(=O)c3[nH]ccc23)CC1 [Example 301, ethyl 4-[4-(ethylsulfonyl)-2-(6-methyl-7-oxo-6,7-dihydro-1H-pyrrolo[2,3-c]pyridin-4-yl)phenoxy]piperidine-1-carboxylate] |

Source: patent US9296741B2, “Bromodomain inhibitors” (priority 2012, dated 2016)
